Assay results: patent publication US9056844B2, “4-substituted-3-benzyloxy-bicyclo[3.1.0]hexane compounds as mGluR 2/3 antagonists” (Eli Lilly and Company, priority 2010, dated 2015)

Columns and labels:
Type in all cases: cell-based
human mGlu3 receptors = molecular target: T1, human mGlu3 receptors (Homo sapiens, UniProt Q14832); assay: mGlu3 receptor cAMP antagonist assay; conditions: reversal of DCG IV (EC90) inhibition of forskolin-stimulated cAMP; AV12 cells
T1 construct: expressed in transfected cells; host or cells: AV12 cells, co-expressing rat EAAT1
T1 sequence (Q14832 23-879): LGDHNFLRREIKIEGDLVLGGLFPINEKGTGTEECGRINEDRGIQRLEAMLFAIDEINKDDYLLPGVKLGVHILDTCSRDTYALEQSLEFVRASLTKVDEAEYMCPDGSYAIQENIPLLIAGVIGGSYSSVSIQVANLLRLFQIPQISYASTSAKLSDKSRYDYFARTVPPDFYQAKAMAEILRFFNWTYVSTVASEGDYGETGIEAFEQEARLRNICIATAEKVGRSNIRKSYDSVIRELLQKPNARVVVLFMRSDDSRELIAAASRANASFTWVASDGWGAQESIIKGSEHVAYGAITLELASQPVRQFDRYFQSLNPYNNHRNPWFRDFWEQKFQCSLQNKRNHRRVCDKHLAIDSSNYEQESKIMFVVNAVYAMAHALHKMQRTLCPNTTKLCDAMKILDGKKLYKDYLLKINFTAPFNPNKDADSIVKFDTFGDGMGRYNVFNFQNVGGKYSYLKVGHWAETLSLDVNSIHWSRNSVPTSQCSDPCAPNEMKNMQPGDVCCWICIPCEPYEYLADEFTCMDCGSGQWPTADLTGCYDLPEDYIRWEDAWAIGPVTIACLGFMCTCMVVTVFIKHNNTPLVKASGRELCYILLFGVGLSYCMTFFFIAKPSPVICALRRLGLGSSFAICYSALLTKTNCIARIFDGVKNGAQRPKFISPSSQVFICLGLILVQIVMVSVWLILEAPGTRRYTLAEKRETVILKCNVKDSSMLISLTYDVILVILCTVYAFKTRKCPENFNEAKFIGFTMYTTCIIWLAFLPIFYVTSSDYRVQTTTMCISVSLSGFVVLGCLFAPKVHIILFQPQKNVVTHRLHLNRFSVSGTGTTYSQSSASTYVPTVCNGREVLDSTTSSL
Protocol: mGlu2 and mGlu3 Receptor cAMP Antagonist Assays
Antagonist activity is assayed in recombinant AV12 cells stably expressing human mGlu2 or mGlu3 receptors and the rat glutamate transporter EAAT1 (Excitatory Amino Acid Transporter 1). The cell lines are maintained by culturing in DMEM with high glucose and pyridoxine hydrochloride supplemented with 5% dialyzed fetal bovine serum (FBS), 1 mM sodium pyruvate, 1 mM HEPES and 1 mM L-glutamine; geneticin and hygromycin B are used as selection antibiotics. Confluent cultures are grown at 37° C. in an atmosphere containing 6.5% CO2, and passaged biweekly. Cells are harvested using 0.25% trypsin, suspended in freeze media (FBS with 10% DMSO) at 10^7 cells/ml, and aliquots are stored in liquid nitrogen. Twenty-four hours before the assay, cells are plated at a density of 8,000-10,000 cells per well in a tissue culture treated, 96-well, half-area black plates (Costar 3875) in 50 μl of DMEM with high glucose and pyridoxine hydrochloride supplemented with 5% dialyzed FBS, 1 mM sodium pyruvate, 1 mM HEPES, 100 μg/ml ampicillin, and 250 μM (mGlu2) or 125 μM (mGlu3) of L-glutamine.
Reversal of the inhibition of forskolin-stimulated cAMP production by test compounds is measured using homogeneous time resolved fluorescence technology (HTRF; Cisbio cat #62AM4PEB). The medium is removed and the cells are incubated with 100 μl cAMP stimulation buffer (STIM) for 30 minutes at 37° C. (STIM buffer contains 500 ml HBSS, 1000 ml DPBS, 0.034% BSA, 1.67 mM HEPES and 500 μM IBMX (Sigma 15879).) Compounds are tested in 10-point concentration response curves using 3× serial dilution followed by further 40-fold dilution into STIM buffer. DCG IV (Tocris 0975) serves as the reference agonist. The final reaction mixture contains 1 μM (for mGlu2) or 3 μM (for mGlu3) of forskolin (Sigma F6886), DCG IV at its EC90, and up to 25 μM of test compound. Cells are incubated at 37° C. for 20 minutes. To measure the cAMP levels, cAMP-d2 conjugate and anti cAMP-cryptate conjugate in lysis buffer are incubated with the treated cells at room temperature for 1 hour (mGlu2) or 1.5 hour (mGlu3). The HTRF signal is detected using an EnVision plate reader (Perkin-Elmer) to calculate the ratio of fluorescence at […]. The raw data are converted to cAMP amount (pmole/well) using a cAMP standard curve generated for each experiment. Relative IC50 values are calculated from the top-bottom range of the concentration response curve using a four-parameter logistic curve fitting program (ActivityBase v5.3.1.22).

human mGlu1 receptor = molecular target: T2, human mGlu1 receptor (Homo sapiens, UniProt Q13255); assay: FLIPR calcium assay for mGlu receptor selectivity, mGlu1 antagonist mode; conditions: inhibition of EC90 glutamate response, read-out: mGlu1 % inhib. @12.5 μM
T2 construct: expressed in transfected cells; host or cells: AV12 cells, co-expressing rat EAAT1
T2 sequence (Q13255 19-1194): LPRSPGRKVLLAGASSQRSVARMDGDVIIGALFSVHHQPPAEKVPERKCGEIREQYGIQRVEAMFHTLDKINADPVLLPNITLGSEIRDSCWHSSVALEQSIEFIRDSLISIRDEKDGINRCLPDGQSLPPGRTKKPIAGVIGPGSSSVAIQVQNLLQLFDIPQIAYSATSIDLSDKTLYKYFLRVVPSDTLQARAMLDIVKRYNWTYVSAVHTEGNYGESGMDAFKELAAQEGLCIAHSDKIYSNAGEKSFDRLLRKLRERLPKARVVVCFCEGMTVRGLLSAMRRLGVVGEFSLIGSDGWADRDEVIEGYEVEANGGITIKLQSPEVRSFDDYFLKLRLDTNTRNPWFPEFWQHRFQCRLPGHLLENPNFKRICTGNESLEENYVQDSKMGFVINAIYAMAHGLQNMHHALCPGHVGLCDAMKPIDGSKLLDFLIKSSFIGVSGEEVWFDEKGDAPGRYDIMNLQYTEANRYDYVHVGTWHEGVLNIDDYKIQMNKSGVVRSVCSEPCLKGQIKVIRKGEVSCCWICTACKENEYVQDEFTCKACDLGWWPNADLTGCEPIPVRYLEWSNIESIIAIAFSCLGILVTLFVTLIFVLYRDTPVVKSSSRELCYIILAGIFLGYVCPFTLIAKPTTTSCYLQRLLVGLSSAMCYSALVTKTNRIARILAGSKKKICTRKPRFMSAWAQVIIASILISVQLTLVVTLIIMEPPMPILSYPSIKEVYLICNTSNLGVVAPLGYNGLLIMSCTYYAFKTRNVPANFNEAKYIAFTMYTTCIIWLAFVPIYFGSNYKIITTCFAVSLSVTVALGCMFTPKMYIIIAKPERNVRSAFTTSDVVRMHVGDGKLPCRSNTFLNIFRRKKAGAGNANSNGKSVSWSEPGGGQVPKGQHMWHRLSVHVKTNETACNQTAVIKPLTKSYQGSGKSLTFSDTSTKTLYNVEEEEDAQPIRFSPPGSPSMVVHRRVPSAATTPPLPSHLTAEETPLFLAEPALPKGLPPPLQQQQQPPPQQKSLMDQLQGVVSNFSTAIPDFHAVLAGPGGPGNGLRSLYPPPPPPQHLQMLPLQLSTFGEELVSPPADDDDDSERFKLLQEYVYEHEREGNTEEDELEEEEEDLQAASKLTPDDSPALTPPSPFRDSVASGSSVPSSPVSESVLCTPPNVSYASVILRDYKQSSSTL
From the text: (§1) FLIPR and cAMP Assays for mGlu Receptor Selectivity
(§2) The relative antagonist potencies of the compounds of the invention for the other human mGlu receptors can be assessed with either a cAMP assay or fluorometric calcium response assay (see for example Fell et al., JPET (in press)). Briefly, individual AV12 cell lines containing the rat EAAT1 glutamate transporter and stably expressing the human mGlu1, 2, 3, 4, 5, 6, & 8 receptors are used for these studies. The mGlu1 and 5 receptors are […], so they naturally signal through phospholipase C, producing a calcium flux response which can be used to measure receptor activation using a Fluorometric Imaging Plate Reader (FLIPR, Molecular Devices). The cell lines expressing the mGlu2, 3, 4, and 8 receptor are designed to express the Gα15 subunit so that these Gi-coupled receptors will generate a calcium flux response similar to the mGlu1 and 5 receptor expressing cell lines. The mGlu6 receptor is tested in a cAMP format using methods analogous to those developed for mGlu2 and mGlu3 above. These cell lines are maintained as previously described except that amounts of L-glutamine and selection agents (geneticin, hygromycin B, zeocin, and blasticidin) may vary depending on the cell line. Confluent cultures are passaged biweekly.
(§3) Intracellular calcium levels are monitored using FLIPR before and after the addition of test compounds and Fluo-3 AM (Invitrogen) or Calcium 4 (Molecular Devices) dye, depending on the cell line. Cells are plated 24 hours prior to assay in a variable concentration of glutamine and a variable density of cells per well, depending on the cell line. The medium is removed and the cells are incubated with 8 μM of dye (50 μl per well) for 90 or 120 minutes (depending on cell line) at 25° C. A single-addition FLIPR assay generating an 11-point concentration response curve for the agonist glutamate is conducted prior to each experiment to confirm the appropriate sensitivity of the cells. The results are analyzed using GraphPad Prism v4.03 to calculate the concentrations of glutamate needed to induce the EC90 (antagonist assay) and EC10 (potentiator assay) responses.
(§4) Compounds are tested at each mGlu receptor in a two-addition FLIPR assay using a 10-point concentration response profile starting at a final concentration of 25 μM for the agonist assay and 12.5 μM for the potentiator and antagonist assays. The first addition detects any agonist activity, and the second addition consists of 100 μl of select concentrations (depending on cell line) of glutamate in assay buffer generating an EC10 or EC90 glutamate response. Agonist effects are quantified as percent stimulation induced by compound alone relative to the maximal glutamate response. Antagonist effects are quantified by calculating the percent inhibition of the EC90 glutamate response caused by the compound. Potentiation effects are quantified as percent increase in the presence of an EC10 response in glutamate relative to the ECmax response. All data are calculated as relative IC50 or EC50 values using a four-parameter logistic curve fitting program (ActivityBase v5.3.1.22).

human mGlu5 receptor = molecular target: T3, human mGlu5 receptor (Homo sapiens, UniProt P41594); assay: FLIPR calcium assay for mGlu receptor selectivity, mGlu5 antagonist mode; conditions: inhibition of EC90 glutamate response, read-out: mGlu5 % inhib. @12.5 μM
T3 construct: expressed in transfected cells; host or cells: AV12 cells, co-expressing rat EAAT1
T3 sequence (P41594 19-1212 limits assumed): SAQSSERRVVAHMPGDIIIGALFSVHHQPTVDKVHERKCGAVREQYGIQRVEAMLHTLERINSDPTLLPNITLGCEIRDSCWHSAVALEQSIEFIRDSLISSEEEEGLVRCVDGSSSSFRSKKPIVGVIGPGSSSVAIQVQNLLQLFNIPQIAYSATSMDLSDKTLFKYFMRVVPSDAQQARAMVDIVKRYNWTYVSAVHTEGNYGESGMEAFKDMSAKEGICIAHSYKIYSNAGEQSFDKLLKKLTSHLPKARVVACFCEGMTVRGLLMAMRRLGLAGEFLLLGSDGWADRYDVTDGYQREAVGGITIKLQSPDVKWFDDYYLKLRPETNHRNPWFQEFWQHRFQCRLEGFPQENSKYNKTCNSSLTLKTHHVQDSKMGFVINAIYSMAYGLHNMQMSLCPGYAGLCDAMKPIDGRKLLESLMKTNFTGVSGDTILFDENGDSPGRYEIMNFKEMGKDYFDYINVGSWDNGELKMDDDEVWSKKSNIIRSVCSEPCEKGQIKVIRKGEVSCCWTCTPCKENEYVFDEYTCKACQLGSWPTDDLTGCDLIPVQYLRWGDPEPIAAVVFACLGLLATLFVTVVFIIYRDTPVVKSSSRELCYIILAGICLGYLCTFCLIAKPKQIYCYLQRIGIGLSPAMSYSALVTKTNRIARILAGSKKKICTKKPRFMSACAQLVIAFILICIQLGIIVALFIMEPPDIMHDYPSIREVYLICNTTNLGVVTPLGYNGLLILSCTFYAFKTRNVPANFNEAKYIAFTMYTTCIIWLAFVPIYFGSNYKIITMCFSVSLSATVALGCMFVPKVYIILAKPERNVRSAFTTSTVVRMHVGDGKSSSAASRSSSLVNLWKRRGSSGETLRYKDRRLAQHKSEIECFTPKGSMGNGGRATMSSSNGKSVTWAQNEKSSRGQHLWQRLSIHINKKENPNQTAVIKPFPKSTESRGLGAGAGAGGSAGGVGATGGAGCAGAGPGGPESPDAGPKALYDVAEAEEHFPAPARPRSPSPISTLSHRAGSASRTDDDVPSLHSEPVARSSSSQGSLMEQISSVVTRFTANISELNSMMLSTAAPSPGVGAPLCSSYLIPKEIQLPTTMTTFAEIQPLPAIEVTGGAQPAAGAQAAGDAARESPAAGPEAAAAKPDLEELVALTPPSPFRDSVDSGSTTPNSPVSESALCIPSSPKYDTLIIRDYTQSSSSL
From the text: as §1, §2, §3, §4

SMILES | IC50 (human mGlu3 receptors) | inhibition at 12.5 µM (human mGlu1 receptor) | inhibition at 12.5 µM (human mGlu5 receptor)
N[C@]1(C(=O)O)[C@@H]2[C@@H](C(=O)O)[C@@H]2[C@H](O)[C@H]1OCc1ccc(Cl)c(Cl)c1 [Example 1, (1S,2R,3S,4S,5R,6R)-2-Amino-3-[(3,4-dichlorobenzyl)oxy]-4-hydroxybicyclo[3.1.0]hexane-2,6-dicarboxylic acid] | 27.2 ± 4.2 nM | -0.47% | 4.8%
N[C@]1(C(=O)O)[C@@H]2[C@@H](C(=O)O)[C@@H]2[C@H](Sc2nc[nH]n2)[C@H]1OCc1ccc(Cl)c(Cl)c1 [Example 2, (1R,2R,3S,4S,5R,6R)-2-Amino-3-[(3,4-dichlorobenzyl)oxy]-4-(1H-1,2,4-triazol-3-ylsulfanyl)bicyclo[3.1.0]hexane-2,6-dicarboxylic acid] | 7.8 nM | 8.6% | -12.9%
CC(=O)N[C@H]1[C@H]2[C@H](C(=O)O)[C@H]2[C@](N)(C(=O)O)[C@@H]1OCc1ccc(Cl)c(Cl)c1 [Example 4, (1S,2R,3R,4S,5R,6S)-4-(Acetylamino)-2-amino-3-[(3,4-dichlorobenzyl)oxy]bicyclo[3.1.0]hexane-2,6-dicarboxylic acid] | 8.2 ± 0.3 nM | -2% | 22.6%
Cl.Cn1cnc(S[C@H]2[C@H]3[C@H](C(=O)O)[C@H]3[C@](N)(C(=O)O)[C@@H]2OCc2ccc(Cl)c(Cl)c2)n1 [Example 7, (1R,2R,3S,4S,5R,6R)-2-Amino-3-[(3,4-dichlorophenyl)methoxy]-4-[(1-methyl-1,2,4-triazol-3-yl)sulfanyl]bicyclo[3.1.0]hexane-2,6-dicarboxylic acid hydrochloride.] | 34.8 ± 6.9 nM | 11.2% | 22.7%
Cl.N[C@]1(C(=O)O)[C@@H]2[C@@H](C(=O)O)[C@@H]2[C@H](NC(=O)CO)[C@H]1OCc1ccc(Cl)c(Cl)c1 [Example 9, (1S,2R,3R,4S,5R,6S)-2-Amino-3-[(3,4-dichlorobenzyl)oxy]-4-[(hydroxyacetyl)amino]bicyclo[3.1.0]hexane-2,6-dicarboxylic acid hydrochloride] | 4.4 ± 0.5 nM | 5% | 13.8%
